Laboratory results published in US20150111852A1, “1-Di(sec-butyl)-phosphinoyl-pentane (dapa-2-5) as a topical agent” (priority 2013, published 2015).
“And” between values parts separate entries of the source, which are not always exact repeats. Equal values may be shown once. “Also recorded” adds a separate entry of the source.

What was measured:
oropharynx = assay: Sensory effects and cold discomfort of compounds given orally in ODT (general evaluation); type: in vivo, human; settings: for distribution of the sensation (throat vs chest): oral ODT
Procedure: The correlation between a chemical's potency at the TRPM8 receptor (measured by the EC50 μM) and potency to evoke sensory events in the oropharynx is complex.
When a test compound is applied to non-keratinizng bodily surfaces (e.g., oropharyngeal surface), it is possible to characterize the resulting sensations.
The sensations are akin to rapid drinking of cold water mixed and equilibrated with ice chips. The intense cold is further accentuated if the drink is acidified, for example, with lemonade. The sensations of dull and intense cold on the surface of the oropharynx can be described as painful, uncomfortable, and aversive. The term “icy cold” is used to describe these adverse intense cold sensations.
Together, these three types of sensations—“icy cold”, coldness in the chest, and systemic coldness—is termed “cold discomfort”. […] The ideal agent must have a circumscribed site of action, and the intensity of the sensation should not cause “icy cold”, coldness in the chest, or systemic chills.

mouth and throat = assay: Sensory activity of ODT-C on volunteers (double-blind, modified ASHRAE scale); type: in vivo, human; settings: doses higher than 1.5 mg
[1] = Repeated-dose toxicity in male rats (organ weights, histology); type: in vivo, rat
Procedure: DAPA-2-7, dissolved in 3% ethanol/97% 1,2-propanediol, or vehicle alone, was administered subcutaneously to male rats (N=8 per group) at 30 mg/kg body weight daily for 7 days, and on the 8th day, the animals were euthanized with sodium pentobarbital and the major organs (body, heart, liver, lungs, kidney, testes, brain) were removed and weighed. Heart tissues (ventricle and heart valves) and liver samples were stained with hematoxylin and eosin and the histology examined.
In a large scale trial, DAPA-2-5 was administered via drinking water to male rats for 40 days. The DAPA-2-5 was mixed with condensed milk [8.5%] at 0.5 mg/mL and liquid consumption was monitored. The averaged intake in the treated group [N=12 rats] was 41 mg/kg body weight/day for 40 days. The vehicle alone group was N=11.

[2] = HPLC content of DAPA-2-5 recovered from disintegrated prototype tablets; type: physicochemical
Procedure: A high pressure liquid chromatography [HPLC] method was developed for analysis of DAPA-2-5 in aqueous solution. The chromatographic conditions were: Column: Waters XTerra RP18, 150×4.6 mm, 3.5 μm, Column temperature: 40° C., Mobile phase : 0.1% Tetrabutyl ammonium and Tri fluro acetic acid in 900mL water and 100 mL Acetonitrile, Flow: 1.0 mUmin, Diluent : Water, Wavelength: 226 nm, Injection Volume: 100 μL, Run time: 10 min, Standard Preparation: 0.75 mg/mL of DAPA-2-5 in water. Sample Preparation: Equivalent to 0.75 mg/mL of DAPA-2-5 in water. Prototype tablets containing DAPA-2-5 were disintegrated and the content of DAPA-2-5 measured. […] It is likely that the non-eluted DAPA-2-5 remains tightly bound to sites on the Neusilin US2.

Strains TA 98 and TA100 = assay: Ames test; type: cell-based; settings: Strains TA 98 and TA100, with and without liver activation
Procedure: Preliminary toxicological studies were conducted on DAPA-2-5 and DAPA-2-7.

ASIC3 (acid-sensing) = molecular target: T1, ASIC3 (acid-sensing) (Homo sapiens, UniProt Q9UHC3); assay: Patch-clamp in transfected cells, ASIC3; type: cell-based; settings: DAPA-2-5 at 5 μM; positive control amiloride
T1 construct: expressed in transfected cells
T1 sequence (Q9UHC3 1-531): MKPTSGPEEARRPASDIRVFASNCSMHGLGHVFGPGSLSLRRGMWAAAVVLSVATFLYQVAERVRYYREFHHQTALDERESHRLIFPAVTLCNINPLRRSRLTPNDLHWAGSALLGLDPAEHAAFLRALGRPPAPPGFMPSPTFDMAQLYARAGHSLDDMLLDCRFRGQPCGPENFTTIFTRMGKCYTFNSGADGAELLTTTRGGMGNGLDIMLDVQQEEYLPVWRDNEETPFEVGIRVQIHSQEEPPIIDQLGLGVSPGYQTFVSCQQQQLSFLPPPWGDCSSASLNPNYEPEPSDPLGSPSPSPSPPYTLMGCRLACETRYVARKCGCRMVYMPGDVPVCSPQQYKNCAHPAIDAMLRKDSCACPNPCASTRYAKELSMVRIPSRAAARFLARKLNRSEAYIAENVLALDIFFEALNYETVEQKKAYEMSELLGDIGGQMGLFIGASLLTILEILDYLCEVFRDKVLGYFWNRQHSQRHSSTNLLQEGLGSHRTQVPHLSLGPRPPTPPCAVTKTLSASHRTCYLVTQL

[3] = molecular target: T2, TRPV1 channels (human TRPV1 gene expressed in HEK293 cells) (Homo sapiens, UniProt Q8NER1); assay: TRPV1 agonist assay; type: cell-based
T2 construct: expressed in transfected cells; host or cells: HEK293 cells
T2 sequence (Q8NER1 whole entry): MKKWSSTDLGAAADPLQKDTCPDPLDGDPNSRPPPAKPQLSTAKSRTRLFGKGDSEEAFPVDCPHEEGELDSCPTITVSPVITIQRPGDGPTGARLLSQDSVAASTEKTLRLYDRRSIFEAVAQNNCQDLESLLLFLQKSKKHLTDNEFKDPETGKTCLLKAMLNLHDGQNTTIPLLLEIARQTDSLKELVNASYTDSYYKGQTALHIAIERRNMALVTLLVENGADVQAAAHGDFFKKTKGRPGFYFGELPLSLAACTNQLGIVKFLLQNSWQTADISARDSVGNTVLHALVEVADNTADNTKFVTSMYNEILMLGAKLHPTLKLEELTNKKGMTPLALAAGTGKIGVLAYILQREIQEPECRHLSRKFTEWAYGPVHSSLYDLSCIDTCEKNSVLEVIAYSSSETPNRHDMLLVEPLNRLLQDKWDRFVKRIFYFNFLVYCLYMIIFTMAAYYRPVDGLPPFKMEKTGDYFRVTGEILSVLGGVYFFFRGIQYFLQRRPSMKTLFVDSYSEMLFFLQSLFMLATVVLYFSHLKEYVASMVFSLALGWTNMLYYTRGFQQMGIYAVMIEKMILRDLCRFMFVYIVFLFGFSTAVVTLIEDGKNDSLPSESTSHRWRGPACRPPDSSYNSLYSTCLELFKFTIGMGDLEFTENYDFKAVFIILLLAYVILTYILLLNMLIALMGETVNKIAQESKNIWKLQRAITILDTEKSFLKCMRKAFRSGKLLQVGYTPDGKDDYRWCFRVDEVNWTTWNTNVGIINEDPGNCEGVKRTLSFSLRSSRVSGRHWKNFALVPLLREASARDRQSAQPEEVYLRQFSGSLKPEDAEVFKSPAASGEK
Procedure: To examine the specificity of the test compounds, further studies were conducted on TRPV1 channels (human TRPV1 gene expressed in HEK293 cells) and TRPA1 channels (human TRPA1 gene expressed in CHO cells). The test cells were Chinese Hamster Ovary (CHO) cells or Human Embyronic Kidney (HEK) 293 cells transfected with human TRPV1 or TRPA1 cDNAs.

[4] = system: throat, airway and chest discomfort; assay: Case studies with DAPA-2-5 tablets in human subjects; type: in vivo; settings: for precipitation of “ice cream headache” (Case Study 5): ODT-A 2 mg
[5] = male rats, 30 mg/kg subcutaneously daily for 7 days

Structure (SMILES): CCCCCCP(=O)(C(C)CC)C(C)CC (stereo not shown) [DAPA-2-6, 1-Di(sec-butyl) phosphinoyl-hexane]
- distribution of the sensation (throat vs chest) (oropharynx): sensations of cold in the chest; also recorded: spreads behind the sternum, into the chest

Structure (SMILES): CCCCCP(=O)(C(C)CC)C(C)CC (stereo not shown) [DAPA-2-5, 1-Di(sec-butyl)-phosphinoyl-pentane]
- ODT-C test results at higher doses (mouth and throat): higher than 1.5 mg “penetrating cold” sensations.
- difference in organ weights or histology vs vehicle ([1]; male rats, via drinking water, averaged intake 41 mg/kg body weight/day for 40 days): no statistical difference
- difference in organ weights or histology vs vehicle ([1]; rats, 20 mg/kg perioral by gavage for 7 days): no statistical difference
- DAPA-2-5 recovered from the aqueous phase [2]: 86±2%
- mutagenic in the Ames test (Strains TA 98 and TA100): Neither of these compounds was mutagenic
- agonist or antagonist activity, ASIC3 (ASIC3 (acid-sensing)): No agonist or antagonist activities
- times less potent than DAPA-2-6 in stimulating TRPV1 [3]: 54
- sensation at increased dose (oropharynx; dose increased to 8 mg (per tablet)): burning penetrating quality to the sensation, but it was not aversive; also recorded: did not produce stinging, adverse tastes, or “icy cold” or cold discomfort
- duration of “dynamic cool” in the oropharynx (oropharynx; in vivo): 5 to 15 min and 10 to 15 min
- distribution of the sensation (throat vs chest) (oropharynx): remained localized to the throat and upper esophagus
- effective in reducing throat discomfort (Case Study 7) ([4]; ODT-A 1.0 mg as needed, six women): 100%
- hoarseness and loss of voice (Case Study 6) ([4]; ODT-A 1 mg, twenty trials): immediate relief from throat discomfort
- choking and gagging in asthma (Case Study 4) ([4]; ODT-A 1 mg, two subjects): effective in controlling choking and gagging
- cough in cough variant asthma (Case Study 4) ([4]; ODT-A 1.5 mg, two or three tablets at a time, after a week's trial): completely under control
- precipitation of “ice cream headache” (Case Study 5) [4]: Neither of the ODT precipitated a headache response
- relief of hoarseness (Case Study 1) ([4]; ODT-A, 1 to 1.5 mg, person, five occasions): fully effective in relieving their hoarseness
- time to disappearance of chest discomfort (Case Study 8, second person) ([4]; four tablets with water): about 10 min
- snoring (Case Study 9) ([4]; tablets 2 mg before sleep): stopped snoring
- time to relief of chest discomfort (Case Study 8) ([4]; three tablets, each 1.5 mg): ≤ 5 min
- hiccups (Case Study 5) ([4]; two DAPA-2-5 ODT): stopped within several min
- throat discomfort from acid reflux (Case Study 5) ([4]; two DAPA-2-5 ODT): immediately controlled their throat discomfort from acid reflux
- nasal congestion (Case Study 2) ([4]; two tablets of 1 mg or one of 1.5 mg, with viral cold): effective remedy

Structure (SMILES): CCCCCCP(=O)(C(C)C)C(C)C [DAPA-1-6, 1-Di(isopropyl)-phosphinoyl-hexane]
- distribution of the sensation (throat vs chest) (oropharynx): sensations of cold in the chest; also recorded: spreads behind the sternum, into the chest

Structure (SMILES): CCCCCCCP(=O)(C(C)C)C(C)C [DAPA-1-7, 1-Di(isopropyl)-phosphinoyl-heptane]
- distribution of the sensation (throat vs chest) (oropharynx): spreads behind the sternum, into the chest

Structure (SMILES): CCCCCCCP(=O)(C(C)CC)C(C)CC (stereo not shown) [DAPA-2-7, 1-Di(sec-butyl) phosphinoyl-heptane]
- differences in body or organ weights vs vehicle [1, 5]: no significant differences
- heart and liver histology [1, 5]: normal
- mutagenic in the Ames test (Strains TA 98 and TA100): Neither of these compounds was mutagenic
- systemic sensations of cold (oropharynx; higher oral doses (e.g., 5 mg or more)): sensations of cold on other body surfaces
- distribution of the sensation (throat vs chest) (oropharynx): sensations of cold in the chest; also recorded: spreads behind the sternum, into the chest
- precipitation of “ice cream headache” (Case Study 5) [4]: Neither of the ODT precipitated a headache response
